Reference: article PMC7872314, “Modeling Bioavailable Concentrations in Zebrafish Cell Lines and Embryos Increases the Correlation of Toxicity Potencies across Test Systems” (Environmental Science & Technology, 2020)
Like-named read-outs stand apart in the source and are kept apart here.

What was measured:
[1] = test system: ZF4 (fibroblasts) cell line; assay: ATP assay (ATP/LDH multiplex), ATP metabolism; type: cell-based, zebrafish (Danio rerio); conditions: Danio rerio, Fibroblast
[2] = ref Comptox, PubChem or DrugBank; cited from earlier work
[3] = test system: zebrafish cell lines vs zebrafish embryo; assay: Potency ratios IC50;x/EC50;x (cytotoxicity assays vs mFET); design: species or system zebrafish (Danio rerio)
[4] = test system: ZFL (hepatocytes) cell line; assay: cells; type: cell-based, zebrafish (Danio rerio); conditions: Danio rerio, Hepatocyte
[5] = test system: ZFL (hepatocytes) cell line; assay: cells; type: cell-based, zebrafish (Danio rerio); conditions: Danio rerio, Hepatocyte; remark: listed apart in the source
[6] = test system: ZF4 (fibroblasts) cell line; assay: alamarBlue (AB) endpoint of AB/CFDA/NR multiplex, cellular respiration; type: cell-based, zebrafish (Danio rerio); conditions: Danio rerio, Fibroblast
[7] = test system: zebrafish embryos; design: method as in earlier work; conditions: nominal, cited from earlier work
[8] = test system: ZF4 (fibroblasts) cell line; assay: Neutral red, fluorescence (NRf), AB/CFDA/NR multiplex, lysosome stability; type: cell-based, zebrafish (Danio rerio); conditions: Danio rerio, Fibroblast
[9] = test system: diverse mammalian cell assay results; design: method as in https://comptox.epa.gov/dashboard/; conditions: COMPTOX; ref https://comptox.epa.gov/dashboard/; read-out: median AC50; cited from earlier work
[10] = test system: ZFL (hepatocytes) cell line; assay: cells; type: cell-based, zebrafish (Danio rerio); conditions: Danio rerio, Hepatocyte; remark: listed apart in the source
[11] = test system: ZF4 (fibroblasts) cell line; assay: CFDA endpoint of AB/CFDA/NR multiplex, membrane stability; type: cell-based, zebrafish (Danio rerio); conditions: Danio rerio, Fibroblast
[12] = test system: ZF4 (fibroblasts) cell line; assay: BCA assay (MTS/BCA multiplex), protein amount; type: cell-based, zebrafish (Danio rerio); conditions: Danio rerio, Fibroblast
[13] = test system: ZFL (hepatocytes) cell line; assay: cells; type: cell-based, zebrafish (Danio rerio); conditions: Danio rerio, Hepatocyte; remark: listed apart in the source
[14] = test system: zebrafish embryos; assay: animal or person; type: in vivo, zebrafish (Danio rerio); conditions: for EC50: Danio rerio
[15] = test system: ZF4 (fibroblasts) cell line; assay: Neutral red, absorbance (NRa), AB/CFDA/NR multiplex, lysosome stability; type: cell-based, zebrafish (Danio rerio); conditions: Danio rerio, Fibroblast
[16] = test system: ZF4 and ZFL cell lines; assay: Cytotoxicity assays, all endpoints, both cell lines (mean/range); type: cell-based, zebrafish (Danio rerio); conditions: 48 h, mean of all cytotoxicity endpoints (without LDH) in ZF4 and ZFL
[17] = test system: ZFL (hepatocytes) cell line; assay: cells; type: cell-based, zebrafish (Danio rerio); conditions: Danio rerio, Hepatocyte; remark: listed apart in the source
[18] = test system: ZF4 (fibroblasts) cell line; assay: MTS assay (MTS/BCA multiplex), NAD(P)H metabolism; type: cell-based, zebrafish (Danio rerio); conditions: Danio rerio, Fibroblast
[19] = test system: ZFL (hepatocytes) cell line; assay: cells; type: cell-based, zebrafish (Danio rerio); conditions: Danio rerio, Hepatocyte; remark: listed apart in the source
[20] = test system: ZFL (hepatocytes) cell line; assay: cells; type: cell-based, zebrafish (Danio rerio); conditions: Danio rerio, Hepatocyte; remark: listed apart in the source

In the case of `COC(=O)Nc1nc2ccc(Sc3ccccc3)cc2[nH]1` [Fenbendazole, fenbendazole], the IC50 ([1]; ATP - ZF4, log10 of IC50, read-out: LogIC50 (converted)) is reported as 7490 nM, the IC50 ([1]; ATP - ZF4, read-out: IC50) is reported as 7490 nM and the IC50 ([1]; ZF4, 48 h exposure, nominal, log10, read-out: logIC50 (log10 IC50;nom) ATP (converted)) is reported as 7410 nM. For the same compound, the IC50 ([1]; ZF4, 48 h exposure, nominal, read-out: IC50;nom ATP) was 7490 nM, the BCF [2] was 1.18E+03 and the Physiological charge [2] was 0. The “Water Solubility” value [2] was “insoluble”, the logKoa [2] was 9.49 and the logKow [2] was 3.21. The “pKa (Strongest Acidic)” value [2] was 9.59, the “pKa (Strongest Basic)” value [2] was 4.06 and the “w_solubility (water solubility)” value [2] was 26.7 µM. The “potency ratio IC50;nom/EC50;nom (median)” value ([3]; median over cytotoxicity endpoints, nominal, 48 h cells / 48 hpf mFET) was 33.3, the “difference in sensitivity between embryo (EC50;nom) and cells (IC50;nom)” value ([3]; nominal concentrations, higher potency in the mFET) was “two to three log-scales more sensitive in the mFET” and the IC50 ([4]; AB - ZFL, log10 of IC50, read-out: LogIC50 (converted)) was 985 nM. For the same compound, the IC50 ([4]; AB - ZFL, read-out: IC50) was 985 nM, the IC50 ([4]; ZFL, 48 h exposure, nominal, log10, read-out: logIC50 (log10 IC50;nom) AB (converted)) was 977 nM and the IC50 ([4]; ZFL, 48 h exposure, nominal, read-out: IC50;nom AB) was 985 nM. The IC50 ([5]; MTS - ZFL, log10 of IC50, read-out: LogIC50 (converted)) was 166 nM, the IC50 ([5]; MTS - ZFL, read-out: IC50) was 166 nM and the IC50 ([5]; ZFL, 48 h exposure, nominal, log10, read-out: logIC50 (log10 IC50;nom) MTS (converted)) was 166 nM. For the same compound, the IC50 ([5]; ZFL, 48 h exposure, nominal, read-out: IC50;nom MTS) was 166 nM, the IC50 ([6]; AB - ZF4, log10 of IC50, read-out: LogIC50 (converted)) was 3570 nM and the IC50 ([6]; AB - ZF4, read-out: IC50) was 3570 nM. The IC50 ([6]; ZF4, 48 h exposure, nominal, log10, read-out: logIC50 (log10 IC50;nom) AB (converted)) was 3550 nM, the IC50 ([6]; ZF4, 48 h exposure, nominal, read-out: IC50;nom AB) was 3570 nM and the EC50 ([7]; 144 hpf, converted) was 80.2 nM. For the same compound, the “logEC50 144 hpf” value ([7]; log10) was -7.0959 M, the IC50 ([8]; NR-fluo - ZF4, log10 of IC50, read-out: LogIC50 (converted)) was 10400 nM and the IC50 ([8]; NR-fluo - ZF4, read-out: IC50) was 10400 nM. The IC50 ([8]; ZF4, 48 h exposure, nominal, log10, read-out: logIC50 (log10 IC50;nom) NRf (converted)) was 10500 nM, the IC50 ([8]; ZF4, 48 h exposure, nominal, read-out: IC50;nom NRf) was 10400 nM and the AC50 [9] was 900 nM. The IC50 ([10]; NR-fluo - ZFL, log10 of IC50, read-out: LogIC50 (converted)) was 584 nM, the IC50 ([10]; NR-fluo - ZFL, read-out: IC50) was 584 nM and the IC50 ([10]; ZFL, 48 h exposure, nominal, log10, read-out: logIC50 (log10 IC50;nom) NRf (converted)) was 589 nM. It also gave an IC50 ([10]; ZFL, 48 h exposure, nominal, read-out: IC50;nom NRf) of 584 nM, an IC50 ([11]; CFDA - ZF4, log10 of IC50, read-out: LogIC50 (converted)) of 49500 nM and an IC50 ([11]; CFDA - ZF4, read-out: IC50) of 49500 nM. The IC50 ([11]; ZF4, 48 h exposure, nominal, log10, read-out: logIC50 (log10 IC50;nom) CFDA (converted)) was 49000 nM, the IC50 ([11]; ZF4, 48 h exposure, nominal, read-out: IC50;nom CFDA) was 49500 nM and the IC50 ([12]; BCA - ZF4, log10 of IC50, read-out: LogIC50 (converted)) was 1150 nM. The IC50 ([12]; BCA - ZF4, read-out: IC50) was 1150 nM, the IC50 ([12]; ZF4, 48 h exposure, nominal, log10, read-out: logIC50 (log10 IC50;nom) BCA (converted)) was 1150 nM and the IC50 ([12]; ZF4, 48 h exposure, nominal, read-out: IC50;nom BCA) was 1150 nM. For the same compound, the IC50 ([13]; ATP - ZFL, log10 of IC50, read-out: LogIC50 (converted)) was 9850 nM, the IC50 ([13]; ATP - ZFL, read-out: IC50) was 9850 nM and the IC50 ([13]; ZFL, 48 h exposure, nominal, log10, read-out: logIC50 (log10 IC50;nom) ATP (converted)) was 9770 nM. For the same compound, the IC50 ([13]; ZFL, 48 h exposure, nominal, read-out: IC50;nom ATP) was 9850 nM, the “difference in toxicity (EC50;nom) between 48 hpf and 144 hpf” value ([14]; 48 hpf time point less sensitive than 144 hpf) was “approximately the same” and the “log EC50;nom (mFET)” value ([14]; 48 hpf, nominal, log10, listed as Fen) was -7.115 M. The EC50 ([14]; 48 hpf, nominal, log10, read-out: log EC50;nom (mFET) (converted)) was 77.6 nM, the EC50 ([14]; 48 hpf, nominal, read-out: EC50;nom (embryo)) was 0.02 µg/mL and the EC50 ([14]; read-out: EC50 48hpf) was 76.8 nM. For the same compound, the EC50 ([14]; read-out: EC50;nom (mFET)) was 76.8 nM, the IC50 ([15]; NR-abs - ZF4, log10 of IC50, read-out: LogIC50 (converted)) was 1550 nM and the IC50 ([15]; NR-abs - ZF4, read-out: IC50) was 1550 nM. It also gave an IC50 ([15]; ZF4, 48 h exposure, nominal, log10, read-out: logIC50 (log10 IC50;nom) NRa (converted)) of 1550 nM, an IC50 ([15]; ZF4, 48 h exposure, nominal, read-out: IC50;nom NRa) of 1550 nM and an IC50 ([15]; ZF4 cell line, NRa endpoint, nominal, read-out: IC50;nom) of 0.46 µg/mL. The IC50 ([16]; Danio rerio, log10, read-out: Mean log IC50nom (converted)) was 2400 nM, the “Mean log IC50nom” value ([16]; log10, listed as Fen) was -5.623 M and the IC50 ([17]; NR-abs - ZFL, log10 of IC50, read-out: LogIC50 (converted)) was 532 nM. The IC50 ([17]; NR-abs - ZFL, read-out: IC50) was 532 nM, the IC50 ([17]; ZFL, 48 h exposure, nominal, log10, read-out: logIC50 (log10 IC50;nom) NRa (converted)) was 537 nM and the IC50 ([17]; ZFL, 48 h exposure, nominal, read-out: IC50;nom NRa) was 532 nM. For the same compound, the IC50 ([18]; MTS - ZF4, log10 of IC50, read-out: LogIC50 (converted)) was 5840 nM, the IC50 ([18]; MTS - ZF4, read-out: IC50) was 5840 nM and the IC50 ([18]; ZF4, 48 h exposure, nominal, log10, read-out: logIC50 (log10 IC50;nom) MTS (converted)) was 5890 nM. It also gave an IC50 ([18]; ZF4, 48 h exposure, nominal, read-out: IC50;nom MTS) of 5840 nM, an IC50 ([19]; CFDA - ZFL, log10 of IC50, read-out: LogIC50 (converted)) of 21400 nM and an IC50 ([19]; CFDA - ZFL, read-out: IC50) of 21400 nM. For the same compound, the IC50 ([19]; ZFL, 48 h exposure, nominal, log10, read-out: logIC50 (log10 IC50;nom) CFDA (converted)) was 21400 nM, the IC50 ([19]; ZFL, 48 h exposure, nominal, read-out: IC50;nom CFDA) was 21400 nM and the IC50 ([20]; BCA - ZFL, log10 of IC50, read-out: LogIC50 (converted)) was 125 nM. The IC50 ([20]; BCA - ZFL, read-out: IC50) was 125 nM, the IC50 ([20]; ZFL, 48 h exposure, nominal, log10, read-out: logIC50 (log10 IC50;nom) BCA (converted)) was 126 nM and the IC50 ([20]; ZFL, 48 h exposure, nominal, read-out: IC50;nom BCA) was 125 nM.
